Tested on: bovine cornea
Experiment: Bovine cornea opacity and permeability (BCOP) ocular irritation assay
Settings: mean data, Conc. neat, exposure time 10 minutes
Experimental: Products including one or more ingredients which are corrosive in nature and present in a product at a level which normally cause ocular irritation are modified to have reduced ocular irritation without replacing the corrosive ingredient(s) and without reducing the amount of the corrosive ingredient(s) used in a product. The level of corrosiveness or the hazards of a product is determined under EPA regulations. EPA toxicity testing is based on determining the level of ocular irritation caused by a product. This EPA standard is used herein to evidence the reduced corrosive nature of products of the invention. The test used is the bovine cornea opacity and permeability (BCOP) method which is an Organization for Economic Co-operation and Development (OECD) validated method for assessing ocular irritation and has recently been accepted by the EPA as an alternative to the traditional Draize animal test. The BCOP test method is described in the “OECD Guidelines For The Testing Of Chemicals”, No. 437, adopted Jul. 26, 2013 and entitled “Bovine Corneal Opacity and Permeability Test Method for Identifying i) Chemicals Inducing Serious Eye Damage and ii) Chemicals Not Requiring Classification for Eye Irritation or Serious Eye Damage”. […]
Step 3—Initial Opacity. The cMEM is removed and refilled and the initial opacity is read on an opacitometer. […]
Step 5—Rinsing. Corneas are rinsed thoroughly to remove the test substance and incubated for two (2) hours before a final opacity reading. […]
Formulas of the same ingredients as in Example 4 were also tested with lower or higher amounts of CARBOPOL® EZ-2 with respective adjustments in the water concentration. […] The viscosities of the 0.25% solution was ˜4 cps, of the 0.55% solution ˜10 cps, of the 0.75% solution ˜200 cps, of the 1.0% solution (shown above) ˜8,000 cps, (each of the former being measured by Brookfield LVT, spindle 1, speed 30 rpm) and of the 1.25% solution ˜18,700 cps (being measured by Brookfield LVT, spindle 4, speed 30 rpm). […]

CCO [Ethanol (Control), Ethanol]
OD490 Value (fluorescein permeability): 0.899
Opacity Value (n=3 corneas per sample): 28.7
In Vitro Score (EPA: score ≧75 = Category I): 42.2

— US9700043B2, “Corrosive ingredient(s)-containing compositions having reduced toxicity and method of obtaining” (S. C. Johnson & Son, Inc., priority 2014, dated 2017)
